From patent publication US5068349A, “Mitomycin derivatives” (Kyowa Hakko Kogyo Co., Ltd., priority 1988, dated 1991)
Values after ≈ are worked out from the molar mass of the structure shown.

Key:
[1] = test system: Streptococcus faecium ATCC 10541; test: minimum growth inhibitory concentration, agar dilution method (SF); assay type: cell-based; settings: Enterococcus faecium, ATCC10541, pH 7.0
Experimental: (§1) The antibacterial activity of Compounds (I) against various bacteria [minimum growth inhibitory concentration (μ g/ml)] is shown in Table 3.
(§2) The minimum growth inhibitory concentration was determined by the agar dilution method at pH 7.0. In the table, names of bacteria are shown by the following symbols.
SF : Streptococcus faecium ATCC 10541

[2] = test system: Klebsiella pneumoniae ATCC 10031; test: minimum growth inhibitory concentration, agar dilution method (KP); assay type: cell-based; settings: ATCC10031, pH 7.0
Experimental: as §1, §2
KP : Klebsiella pneumoniae ATCC 10031

[3] = test system: Proteus vulgaris ATCC 6897; test: minimum growth inhibitory concentration, agar dilution method (PV); assay type: cell-based; settings: ATCC6897, pH 7.0
Experimental: as §1, §2
PV : Proteus vulgaris ATCC 6897

[4] = test system: Staphylococcus aureus ATCC 6538P; test: minimum growth inhibitory concentration, agar dilution method (SA); assay type: cell-based; settings: ATCC6538P, pH 7.0
Experimental: as §1, §2
SA : Staphylococcus aureus ATCC 6538P

[5] = Determination of LD50 (single administration, 14 days observation); settings: mouse, in vivo, ddY mice, Behrens Kaerber's method
Experimental: (§3) LD50 and ED50 were determined by the following methods, respectively.
(1) Determination of LD50
Five ddY mice were used for each group, and the test compounds were administered once to the mice intraperitoneally or intravenously. […] LD50 was calculated from the death rate of each group according to the Behrens Kaerber's method.

Sarcoma 180 solid tumor = test: Determination of ED50 against Sarcoma 180 solid tumor; assay type: in vivo; settings: Mus musculus, dose at T/C 0.5 (tumor volume, 7 days after implantation), male ddY mice, 24 hours after implantation
Experimental: as §3
(2) Determination of ED50
Sarcoma 180 cells (5×10^6 cells) were implanted intraperitoneally into a ddY mouse and the cells were collected from the ascitic fluid of the animal 7 days after the implantation. The cells were washed once with sterilized physiological saline solution and then suspended in sterilized physiological saline solution to prepare a cell suspension containing 5×10^7 cells/ml. The suspension (0.1 ml) was subcutaneously implanted into the right axilla of male ddY mice weighing 20±2 g.
A test compound was dissolved in physiological saline solution or Tween 80-containing physiological saline solution, and 0.1 to 0.2 ml of the solution was administered to 5 mice as one group intraperitoneally or intravenously 24 hours after the implantation of the tumor cells.
The anti-tumor activity of the test compound was determined by measuring the major axis (a) and the minor axis (b) of the tumor 7 days after the implantation, calculating a value of (a)×(b)^2 /2 corresponding to the volume of the tumor, and calculating a ratio T/C of the volume (T) of the group which received the test compound to the volume (C) of the control group which received no test compound T/C at each dose given was plotted on a graph in which T/C is shown by an ordinary scale on the vertical axis and a dose is shown by a logarithmic scale on the abscissa. The relationship between the dose and T/C was determined to be a straight line by the least-squares method.

[6] = Sarcoma-180, ip, 168 h, intraperitoneal
[7] = Sarcoma-180, 168 h, intravenous

SMILES	MIC [1]	MIC [2]	MIC [3]	MIC [4]	LD50 at 336 h ([5]; ip, intraperitoneal)	ED50 (Sarcoma 180 solid tumor; [6])	LD50 at 336 h ([5]; intravenous)	ED50 (Sarcoma 180 solid tumor; [7])
COCC1=C(N)C(=O)C2=C(C1=O)N1CC3C(N3C)C1(OC)C2COC(N)=O (stereo not drawn) [Compound 1, 6-Demethyl-6-methoxymethylporfiromycin]	0.63 µg/mL (≈ 1.66 µM)	0.63 µg/mL (≈ 1.66 µM)	> 40 µg/mL	0.31 µg/mL (≈ 0.819 µM)	–	–	–	–
COCC1=C(N)C(=O)C2=C(C1=O)N1CC3NC3C1(OC)C2COC(N)=O (stereo not drawn) [Compound 2, 6-Demethyl-6-methoxymethylmitomycin C]	1.3 µg/mL (≈ 3.57 µM)	0.31 µg/mL (≈ 0.851 µM)	1.3 µg/mL (≈ 3.57 µM)	1.3 µg/mL (≈ 3.57 µM)	75 mg/kg	34 mg/kg	–	–
COCC1=C(OC)C(=O)C2=C(C1=O)N1CC3NC3C1(OC)C2COC(N)=O (stereo not drawn) [Compound 4, 6-Demethyl-6-methoxymethylmitomycin A]	10 µg/mL (≈ 26.4 µM)	0.63 µg/mL (≈ 1.66 µM)	2.5 µg/mL (≈ 6.59 µM)	10 µg/mL (≈ 26.4 µM)	–	–	–	–
CCCCOCC1=C(N)C(=O)C2=C(C1=O)N1CC3NC3C1(OC)C2COC(N)=O (stereo not drawn) [Compound 6, 6-Demethyl-6-n-butoxymethylmitomycin C]	0.31 µg/mL (≈ 0.763 µM)	5 µg/mL (≈ 12.3 µM)	–	0.63 µg/mL (≈ 1.55 µM)	> 50 mg/kg	38 mg/kg	–	–
COC12C(COC(N)=O)C3=C(C(=O)C(COCc4ccccc4)=C(N)C3=O)N1CC1NC12 (stereo not drawn) [Compound 7, 6-Demethyl-6-benzyloxymethylmitomycin C]	0.16 µg/mL (≈ 0.363 µM)	5 µg/mL (≈ 11.4 µM)	–	0.63 µg/mL (≈ 1.43 µM)	60 mg/kg	25.2 mg/kg	–	–
COC12C(COC(N)=O)C3=C(C(=O)C(COC(C)C)=C(N)C3=O)N1CC1NC12 (stereo not drawn) [Compound 8, 6-Demethyl-6-isopropoxymethylmitomycin C]	0.31 µg/mL (≈ 0.79 µM)	0.63 µg/mL (≈ 1.61 µM)	40 µg/mL (≈ 102 µM)	0.63 µg/mL (≈ 1.61 µM)	–	–	> 50 mg/kg	14.9 mg/kg
COC12C(COC(N)=O)C3=C(C(=O)C(CO)=C(N)C3=O)N1CC1NC12 (stereo not drawn) [Compound 10, 6-Demethyl-6-hydroxymethylmitomycin C]	10 µg/mL (≈ 28.5 µM)	1.3 µg/mL (≈ 3.71 µM)	5 µg/mL (≈ 14.3 µM)	5 µg/mL (≈ 14.3 µM)	–	–	–	–
CCSCC1=C(N)C(=O)C2=C(C1=O)N1CC3NC3C1(OC)C2COC(N)=O (stereo not drawn) [Compound 11, 6-Demethyl-6-ethylthiomethylmitomycin C]	0.31 µg/mL (≈ 0.786 µM)	1.3 µg/mL (≈ 3.3 µM)	0.16 µg/mL (≈ 0.406 µM)	0.039 µg/mL (≈ 0.0989 µM)	30 mg/kg	11.6 mg/kg	–	–
COC(=O)CCSCC1=C(N)C(=O)C2=C(C1=O)N1CC3NC3C1(OC)C2COC(N)=O (stereo not drawn) [Compound 12, 6-Demethyl-6-(2-methoxycarbonylethylthio)methylmitomycin C]	0.63 µg/mL (≈ 1.39 µM)	0.31 µg/mL (≈ 0.685 µM)	1.3 µg/mL (≈ 2.87 µM)	0.31 µg/mL (≈ 0.685 µM)	–	–	–	–
COC12C(COC(N)=O)C3=C(C(=O)C(CSCCO)=C(N)C3=O)N1CC1NC12 (stereo not drawn) [Compound 13, 6-Demethyl-6-(2-hydroxyethylthio)methylmitomycin C]	10 µg/mL (≈ 24.4 µM)	5 µg/mL (≈ 12.2 µM)	40 µg/mL (≈ 97.5 µM)	10 µg/mL (≈ 24.4 µM)	–	–	–	–
CCCCCCCCCCCCSCC1=C(N)C(=O)C2=C(C1=O)N1CC3NC3C1(OC)C2COC(N)=O (stereo not drawn) [Compound 14, 6-Demethyl-6-dodecylthiomethylmitomycin C]	0.39 µg/mL (≈ 0.729 µM)	–	> 50 µg/mL	0.2 µg/mL (≈ 0.374 µM)	–	–	–	–
COC12C(COC(N)=O)C3=C(C(=O)C(CSC(C)C)=C(N)C3=O)N1CC1NC12 (stereo not drawn) [Compound 16, 6-Demethyl-6-isopropylthiomethylmitomycin C]	0.078 µg/mL (≈ 0.191 µM)	1.3 µg/mL (≈ 3.18 µM)	10 µg/mL (≈ 24.5 µM)	0.16 µg/mL (≈ 0.392 µM)	–	–	37.5 mg/kg	8.4 mg/kg
COC12C(COC(N)=O)C3=C(C(=O)C(CSc4ccccc4)=C(N)C3=O)N1CC1NC12 (stereo not drawn) [Compound 17, 6-Demethyl-6-phenylthiomethylmitomycin C]	0.31 µg/mL (≈ 0.701 µM)	10 µg/mL (≈ 22.6 µM)	40 µg/mL (≈ 90.4 µM)	20 µg/mL (≈ 45.2 µM)	–	–	50 mg/kg	6.1 mg/kg
COC12C(COC(N)=O)C3=C(C(=O)C(CSCc4ccccc4)=C(N)C3=O)N1CC1NC12 (stereo not drawn) [Compound 18, 6-Demethyl-6-benzylthiomethylmitomycin C]	0.039 µg/mL (≈ 0.0854 µM)	5 µg/mL (≈ 11 µM)	40 µg/mL (≈ 87.6 µM)	0.16 µg/mL (≈ 0.35 µM)	–	–	56.6 mg/kg	20.2 mg/kg
COC12C(COC(N)=O)C3=C(C(=O)C4=C(NCCSC4)C3=O)N1CC1NC12 (stereo not drawn) [Compound 20]	5 µg/mL (≈ 12.7 µM)	10 µg/mL (≈ 25.5 µM)	40 µg/mL (≈ 102 µM)	2.5 µg/mL (≈ 6.37 µM)	–	–	22.5 mg/kg	12.6 mg/kg
